Source: patent US7981893B2, “Heteroaryl compounds, compositions thereof, and methods of treatment therewith” (Signal Pharmaceuticals, LLC, priority 2006, dated 2011)
pIC50: −log10 of the molar value.

Columns and labels:
Format in all cases: biochemical
PKCθ = target: T1, PKCθ (Homo sapiens, UniProt Q04759); assay: PKCθ IMAP Assay; conditions: IMAP fluorescence polarization screening assay, 35 μM ATP
T1 construct: purchased Invitrogen
Method: The following is an example of an assay that can be used to determine the PKCθ inhibitory activity of a test compound. Reagents are prepared as follows:
Assay Buffer: 50 mM HEPES (pH 7.6), 10 mM MgCl, 0.1 mM EDTA, 5 mM MBP, 0.01% Triton, 1 mM DTT, 0.05 mg/ml phosphatidyl serine, 0.05 mg/ml diacylglycerol.
The final concentration of PKCθ (Invitrogen) is 0.5 nM. The final concentration of substrate (FAM-AKRRRLSSLRA) (Molecular Devices) is 100 nM. The final concentration of ATP in the reaction is 35 μM. The final concentration of DMSO in the reaction is 2.5%.
Enzyme is kept in 5 μl aliquots and stored at −80° C. prior to use. Test compound is allowed to pre-incubate with enzyme for 45 minutes before the reactions is initiated.
The reaction mixture consists of: 5 μl of test compound in 10% DMSO, 5 μl of 400 nM substrate (FAM-AKRRRLSSLRA), 5 μl of […] PKCθ, and 5 μl of 140 μM ATP (ATP is added to the reaction mixture last to initiate the reaction) per well.
The reaction is allowed to proceed for 60 minutes and is terminated by adding 30 μl per well of 90% Progressive A buffer/10% Progressive B buffer and a 1:400 dilution of binding beeds (Molecular Devices).
The reaction is given a binding incubation time of at least 30 minutes prior to reading the fluorescence polarization signal on an Analyst reader (the following detector settings are used: fluorescein excitation-485 nm, fluorescein emission-530 nm, fluorescein dichroic-505 nm).

Syk = target: T2, Syk (Homo sapiens, UniProt P43405); assay: Syk HTRF Assay; conditions: HTRF screening assay
T2 construct: purchased Carna Biosciences 08-176
Method: 5 μl/well DMSO is added to Column 2 Wells A-O and 29.5 μl to well P2 of Greiner 384-well polypropylene plate. 20 μl/well DMSO is added to Columns 1 and 3-12.
25 mM compound solutions are prepared by the addition of 25 μl of 30 mM compound to Column 2 and 0.5 μl 30 mM reference control to well P2.
Serial dilution is then performed by the following steps: (i) compounds in Column 2 are mixed by pipetting 20 μl up and down 6×; (ii) 10 μl/well compounds in DMSO are transferred from one column to the next column for Columns 2-11; (iii) wells are mixed by pipetting 20 μl up and down 6×; (iv) tips washed 3×25 μl DMSO, 2×25 μl next DMSO.
The following buffers are prepared:
Dilution Buffer: 50 mM HEPES pH 7.6; 1 mM DTT; 10 mM MgCl2; 0.01% Triton X100; 0.01% BSA; 0.1 mM EDTA.
Enzyme Mix in Dilution Buffer: 8.621 ng/ml Syk (Carna Biosciences 08-176).
Start Mix in Dilution Buffer: 87.5 μM ATP; 80 nM Substrate Peptide (American Peptide Company 332722).
14.5 μl/well Enzyme Mix or Dilution Buffer (Background Controls) is added to Costar 384-well black plates.
Compound addition and mixture is performed by the following steps: (i) 0.5 μl/well DMSO/compounds in DMSO transferred from Greiner 384-well polypropylene plate to left half of assay plate containing 14.5 μl/well Enzyme Mix and Dilution Buffer; (ii) Mix by pipetting 10 μl up and down 4×; (iii) tips are washed 4×10 μl in DMSO, 2×20 μl in other DMSO; (iv) steps i-iii are repeated with transfer to right half of assay plate; (v) steps i-iv are repeated with each compound/assay plate until all plates are completed.
10 μl/well Start Mix is added and incubated at room temperature on shaker for 2 minutes (1 hour total reaction time).
Stop Solution in Dilution Buffer: 120 mM EDTA
Antibody Mix in Dilution Buffer: 4.86 μg/ml DyLight 647 Streptavidin (Pierce 21824); 1 μg/ml Lance Eu-Anti-Phosphotyrosine (PerkinElmer AD0069).
5 μl/well[…] is added and incubated at room temperature on shaker for 2 minutes.
[…] Antibody Mix is added and Incubated at room temperature on shaker for 2 minutes (4 hours to overnight total time).
Plates are read at 665 nm and 620 nm emission on Analyst GT protocol HTRF_SP_A or EnVision protocol Steve's TR-FRET.

mTOR = target: T3, mTOR (Homo sapiens, UniProt P42345); assay: mTOR HTR-FRET Assay; conditions: HTR-FRET screening assay, GST-p70S6 kinase fragment substrate
T3 construct: Dilute TOR fraction 1:14 in “Simple TOR Buffer”
Method: The following is an example of an assay that can be used to determine the mTOR inhibitory activity of a test compound. Reagents are prepared as follows:
“Simple TOR buffer” (used to dilute high glycerol TOR fraction): 10 mM Tris pH 7.4, 100 mM NaCl, 0.1% Tween-20, 1 mM DTT (from 1M stock frozen at −20° C. just prior to use). For convenience a large quantity of “Simple TOR buffer” w/o DTT can be stored at 4° C. It can be brought to room temperature and DTT added just prior to dilution of TOR fraction.
5×KB/5×Mn/5×ATP solution (used to dilute substrate GST-p70S6kin 81 a.a. just prior to use) (40 ml screen quantity shown):
Enzyme solution: Dilute TOR fraction 1:14 in “Simple TOR Buffer”. For current lot that is 640 μg/ml TOR fraction diluted 14× to yield 45.7 μg/ml TOR in buffer (i.e. 7.85 ml TOR pooled fraction+102.1 ml Simple TOR buffer=110 ml 14× diluted TOR fraction). Each Enzyme Lot must be QC'd prior to assay.
Substrate solution: This may be prepared just prior to assay if preferred. Dilute 5.3 mg/ml GST-p70S6kinase fragment stock to 3.5 μg/ml (97 nM) working stock in 5×KB/5×Mn/5×ATP solution (i.e. 26.41 μL (5.3 mg/ml) GST-p70S6+40 ml 5×KB/5×Mn/5×ATP=40 ml 3.5 μg/ml (97 nM)).
Assay Buffer (for dilution of Antibodies used in Antibody Detection Reagent):
Antibody Detection Reagent (this reagent should be made just prior to addition to Assay Plates):
Using PlateTrak program (Screen) or Matrix Pipettor (SAR), 19.5 μL of diluted TOR fraction is added to assay plate in all test, reference or positive control wells. 19.5 μL of “Simple TOR buffer” is added to all negative control wells. If treating multiple plates with the same compounds, can increase volume of enzyme to multiples of 19.5 μL in a tall 384 well polypropylene plate.
Using EP3, 0.5 μl of test, reference or control DMSO is added to each well with mixing. Plates are incubated for 30 minutes at room temperature.
Using PlateTrak program (Screen) or Matrix Pipettor (SAR) 5 μL of 5×KB/5×Mn/5×ATP/5× substrate solution is added to each well of the assay plate to start the reaction. The solutions are mixed well and incubated for 2 hours at room temperature.
Using PlateTrak program (Screen) or Matrix Pipettor (SAR) 5 μL of 60 mM EDTA is added to stop the reaction. The solutions are mixed well and allowed to sit for 15-20 minutes before the next step.
Using PlateTrak program (Screen) or Matrix Pipettor (SAR) 10 μl of Antibody Detection Reagent is added. The solutions are mixes well and incubated for 5 hours to O/N to allow antibodies to form complexes with phosphorylated substrate.
Plates are read on AnalystHT using protocol Multi-Method protocol.

T1 sequence (Q04759 whole entry): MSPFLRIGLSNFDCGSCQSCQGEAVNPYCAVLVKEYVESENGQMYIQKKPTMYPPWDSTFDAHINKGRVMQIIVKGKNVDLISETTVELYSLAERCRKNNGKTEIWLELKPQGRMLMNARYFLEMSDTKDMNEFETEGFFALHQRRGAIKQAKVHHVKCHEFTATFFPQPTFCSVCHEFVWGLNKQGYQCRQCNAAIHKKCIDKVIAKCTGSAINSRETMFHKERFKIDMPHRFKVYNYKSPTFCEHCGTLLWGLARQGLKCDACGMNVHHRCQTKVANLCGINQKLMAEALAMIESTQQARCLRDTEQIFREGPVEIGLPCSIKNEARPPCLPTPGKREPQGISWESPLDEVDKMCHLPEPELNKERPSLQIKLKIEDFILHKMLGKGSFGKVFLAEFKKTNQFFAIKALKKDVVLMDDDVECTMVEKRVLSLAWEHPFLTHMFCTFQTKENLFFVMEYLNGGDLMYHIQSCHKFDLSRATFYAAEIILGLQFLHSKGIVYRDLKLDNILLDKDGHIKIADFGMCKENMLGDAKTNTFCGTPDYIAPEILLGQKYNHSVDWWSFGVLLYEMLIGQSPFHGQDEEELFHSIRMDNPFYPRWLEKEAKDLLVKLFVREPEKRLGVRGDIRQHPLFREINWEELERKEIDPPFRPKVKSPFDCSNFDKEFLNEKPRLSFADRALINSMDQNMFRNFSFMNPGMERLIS

COc1ccc(C(C)C)cc1-c1cnc2[nH]c(=O)n([C@@H](CO)C(C)C)c2n1 [Compound 13, (R)-1-(1-hydroxy-3-methylbutan-2-yl)-6-(5-isopropyl-2-methoxyphenyl)-1H-imidazo[4,5-b]pyrazin-2(3H)-one]
pIC50 (PKCθ): 4.70 to 5.00
pIC50 (Syk): 5.00 to 5.29

CC(C)[C@@H](CO)n1c(=O)[nH]c2ncc(-c3ccccc3)nc21 [Compound 1, (S)-1-(1-hydroxy-3-methylbutan-2-yl)-6-phenyl-1H-imidazo[4,5-b]pyrazin-2(3H)-one]
pIC50 (PKCθ): < 4.52
pIC50 (Syk): < 4.52

COc1cccc(Cn2c(=O)[nH]c3ncc(-c4ccc(S(C)(=O)=O)cc4)nc32)c1 [Compound 4, 1-(3-methoxybenzyl)-6-(4-(methylsulfonyl)phenyl)-1H-imidazo[4,5-b]pyrazin-2(3H)-one]
pIC50 (PKCθ): < 4.52
pIC50 (mTOR): 5.30 to 7.00

C[C@@H](c1ccccc1)n1c(=O)[nH]c2ncc(-c3cccc4ncccc34)nc21 [Compound 5, (S)-1-(1-phenylethyl)-6-(quinolin-5-yl)-1H-imidazo[4,5-b]pyrazin-2(3H)-one]
pIC50 (PKCθ): < 4.52
pIC50 (mTOR): 5.00 to 5.29

C[C@H](c1ccccc1)n1c(=O)[nH]c2cnc(-c3cccc4ncccc34)cc21 [Compound 24, (R)-1-(1-phenylethyl)-6-(quinolin-5-yl)-1H-imidazo[4,5-c]pyridin-2(3H)-one]
pIC50 (PKCθ): < 4.52
pIC50 (mTOR): < 4.52

CC(c1ccccc1F)n1c(=O)[nH]c2ncc(-c3cccc4ncccc34)nc21 (centres unmarked) [Compound 51, 1-(1-(2-fluorophenyl)ethyl)-6-(quinolin-5-yl)-1H-imidazo[4,5-b]pyrazin-2(3H)-one]
pIC50 (PKCθ): 5.00 to 5.29
pIC50 (mTOR): 5.00 to 5.29

C[C@H](c1ccccc1)n1c(=O)[nH]c2ncc(-c3cccc4ncccc34)nc21 [Compound 10, (R)-1-(1-phenylethyl)-6-(quinolin-5-yl)-1H-imidazo[4,5-b]pyrazin-2(3H)-one]
pIC50 (PKCθ): 5.30 to 7.00
pIC50 (mTOR): 4.70 to 5.00

CC(c1ccccc1)n1c(=O)[nH]c2ccc(-c3cccc4ncccc34)nc21 (centres unmarked) [Compound 26, 3-(1-phenylethyl)-5-(quinolin-5-yl)-1H-imidazo[4,5-b]pyridin-2(3H)-one]
pIC50 (PKCθ): 5.00 to 5.29
pIC50 (mTOR): < 4.52

CC(c1ccc(F)cc1)n1c(=O)[nH]c2ncc(-c3cccc4ncccc34)nc21 (centres unmarked) [Compound 52, 1-(1-(4-fluorophenyl)ethyl)-6-(quinolin-5-yl)-1H-imidazo[4,5-b]pyrazin-2(3H)-one]
pIC50 (PKCθ): 5.30 to 7.00
pIC50 (mTOR): 5.00 to 5.29

O=c1[nH]c2ncc(-c3cccc4ncccc34)nc2n1C1CCC(O)CC1 (centres unmarked) [Compound 60, 1-((1r,4r)-4-hydroxycyclohexyl)-6-(quinolin-5-yl)-1H-imidazo[4,5-b]pyrazin-2(3H)-one]
pIC50 (PKCθ): 4.52 to 4.70
pIC50 (mTOR): < 4.52

CC(c1ccccc1)n1c(=O)[nH]c2ncc(-c3cccc4cnccc34)nc21 (centres unmarked) [Compound 61, 6-(isoquinolin-5-yl)-1-(1-phenylethyl)-1H-imidazo[4,5-b]pyrazin-2(3H)-one]
pIC50 (PKCθ): 4.70 to 5.00
pIC50 (mTOR): 5.00 to 5.29

O=c1[nH]c2ncc(-c3cccc4ncccc34)nc2n1Cc1ccccc1 [Compound 14, 1-benzyl-6-(quinolin-5-yl)-1H-imidazo[4,5-b]pyrazin-2(3H)-one]
pIC50 (PKCθ): < 4.52
pIC50 (mTOR): 5.30 to 7.00

COc1cc(-c2cnc3[nH]c(=O)n(CC4CCOCC4)c3n2)cc(OC)c1OC [Compound 2, 1-((tetrahydro-2H-pyran-4-yl)methyl)-6-(3,4,5-trimethoxyphenyl)-1H-imidazo[4,5-b]pyrazin-2(3H)-one]
pIC50 (PKCθ): < 4.52
pIC50 (mTOR): 5.30 to 7.00

C[C@H](c1ccccc1)n1c(=O)[nH]c2ccc(-c3cccc4ncccc34)nc21 [Compound 27, (R)-3-(1-phenylethyl)-5-(quinolin-5-yl)-1H-imidazo[4,5-b]pyridin-2(3H)-one]
pIC50 (PKCθ): 5.00 to 5.29
pIC50 (mTOR): < 4.52

O=c1[nH]c2ncc(-c3cccc4ncccc34)nc2n1[C@H](CO)c1ccccc1 [Compound 41, (S)-1-(2-hydroxy-1-phenylethyl)-6-(quinolin-5-yl)-1H-imidazo[4,5-b]pyrazin-2(3H)-one]
pIC50 (PKCθ): 5.30 to 7.00
pIC50 (mTOR): 5.00 to 5.29

O=c1[nH]c2ncc(-c3cccc4ncccc34)nc2n1CC1CCCC1 [Compound 50, 1-(cyclopentylmethyl)-6-(quinolin-5-yl)-1H-imidazo[4,5-b]pyrazin-2(3H)-one]
pIC50 (PKCθ): 4.70 to 5.00
pIC50 (mTOR): 5.30 to 7.00

O=c1[nH]c2ncc(-c3cccc4ncccc34)nc2n1C1CCCC1 [Compound 53, 1-cyclopentyl-6-(quinolin-5-yl)-1H-imidazo[4,5-b]pyrazin-2(3H)-one]
pIC50 (PKCθ): < 4.52
pIC50 (mTOR): 5.00 to 5.29

Cc1nc2[nH]c(=O)n([C@@H](C)c3ccccc3)c2nc1-c1cccc2ncccc12 [Compound 68, 5-methyl-1-((S)-1-phenylethyl)-6-(quinolin-5-yl)-1H-imidazo[4,5-b]pyrazin-2(3H)-one]
pIC50 (PKCθ): < 4.52
pIC50 (mTOR): < 4.52

CC(c1cccc(F)c1)n1c(=O)[nH]c2ncc(-c3cccc4ncccc34)nc21 (centres unmarked) [Compound 54, 1-(1-(3-fluorophenyl)ethyl)-6-(quinolin-5-yl)-1H-imidazo[4,5-b]pyrazin-2(3H)-one]
pIC50 (PKCθ): 5.30 to 7.00
pIC50 (mTOR): 5.00 to 5.29
